We go through 1 compound from patent US20050096224A1 (priority 2002, published 2005).

The structures appear in SMILES notation.

This assay concerns G. pallida. In words: Test A: control of G. pallida by oxamyl on potted potato plants. Conditions: serial small doses at 4-day, 7-day or 14-day intervals over the hatching period vs equivalent dose (3.5, 4.5 or 5.5 kg ai/ha) in one application at planting; 70 days; initial 10 or 50 eggs/g of soil; potato in pots. The format is in vivo, Globodera pallida. An excerpt: G. pallida is the more pernicious pest of potatoes. Studies have been conducted with Composition A comprising oxamyl as described above.
The test units consisted of large diameter pots each containing one potato plant, planted in soil amended with eggs of G. pallida at either 24 cysts per pot (estimated to be about 10 eggs/g of soil) or 120 cysts per pot (estimated to be about 50 eggs/g of soil). These pest burdens represent a level of infestation that would require treatment in order to prevent crop damage and potential multiplication of the pest (10 eggs/g of soil) and substantial yield loss (50 eggs/g of soil).
Composition A was introduced into the test units diluted in a constant volume of water. […] The dose at each application was applied in the same volume of water and in equal incremental quantities. […] The number of cysts attached to the roots per gram of root mass (washed free of soil) was determined at 70 days (10 weeks) after commencement of the trial. […]

Take `CNC(=O)ON=C(SC)C(=O)N(C)C` [oxamyl, N,N-dimethyl-2-methylcarbamoyloxyimino-2-(methylthio)acetamide]: the “control of cyst production by G. pallida (number of cysts attached to the roots per gram of root mass)” value is “superior control”.
